Active and inactive are the calls of the source. Some results are limits rather than exact numbers.

In general, Ki refers to a measure of affinity in units of concentration, obtained from inhibition or displacement. For orientation: AC50 means the concentration at which the activity in the assay is half-maximal. One may read the EC50 as the concentration needed to bring the measured effect to its halfway point.

Assay [1] concerns the target Aurora kinase B (Homo sapiens, UniProt Q96GD4). Type of assay: functional.
The target in assay [2] is ALK tyrosine kinase receptor (Homo sapiens, UniProt Q9UM73). Type of assay: functional.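 Note: ALK tested as one member of a kinase panel screen.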
ALK tyrosine kinase receptor, sequence (Q9UM73 whole entry): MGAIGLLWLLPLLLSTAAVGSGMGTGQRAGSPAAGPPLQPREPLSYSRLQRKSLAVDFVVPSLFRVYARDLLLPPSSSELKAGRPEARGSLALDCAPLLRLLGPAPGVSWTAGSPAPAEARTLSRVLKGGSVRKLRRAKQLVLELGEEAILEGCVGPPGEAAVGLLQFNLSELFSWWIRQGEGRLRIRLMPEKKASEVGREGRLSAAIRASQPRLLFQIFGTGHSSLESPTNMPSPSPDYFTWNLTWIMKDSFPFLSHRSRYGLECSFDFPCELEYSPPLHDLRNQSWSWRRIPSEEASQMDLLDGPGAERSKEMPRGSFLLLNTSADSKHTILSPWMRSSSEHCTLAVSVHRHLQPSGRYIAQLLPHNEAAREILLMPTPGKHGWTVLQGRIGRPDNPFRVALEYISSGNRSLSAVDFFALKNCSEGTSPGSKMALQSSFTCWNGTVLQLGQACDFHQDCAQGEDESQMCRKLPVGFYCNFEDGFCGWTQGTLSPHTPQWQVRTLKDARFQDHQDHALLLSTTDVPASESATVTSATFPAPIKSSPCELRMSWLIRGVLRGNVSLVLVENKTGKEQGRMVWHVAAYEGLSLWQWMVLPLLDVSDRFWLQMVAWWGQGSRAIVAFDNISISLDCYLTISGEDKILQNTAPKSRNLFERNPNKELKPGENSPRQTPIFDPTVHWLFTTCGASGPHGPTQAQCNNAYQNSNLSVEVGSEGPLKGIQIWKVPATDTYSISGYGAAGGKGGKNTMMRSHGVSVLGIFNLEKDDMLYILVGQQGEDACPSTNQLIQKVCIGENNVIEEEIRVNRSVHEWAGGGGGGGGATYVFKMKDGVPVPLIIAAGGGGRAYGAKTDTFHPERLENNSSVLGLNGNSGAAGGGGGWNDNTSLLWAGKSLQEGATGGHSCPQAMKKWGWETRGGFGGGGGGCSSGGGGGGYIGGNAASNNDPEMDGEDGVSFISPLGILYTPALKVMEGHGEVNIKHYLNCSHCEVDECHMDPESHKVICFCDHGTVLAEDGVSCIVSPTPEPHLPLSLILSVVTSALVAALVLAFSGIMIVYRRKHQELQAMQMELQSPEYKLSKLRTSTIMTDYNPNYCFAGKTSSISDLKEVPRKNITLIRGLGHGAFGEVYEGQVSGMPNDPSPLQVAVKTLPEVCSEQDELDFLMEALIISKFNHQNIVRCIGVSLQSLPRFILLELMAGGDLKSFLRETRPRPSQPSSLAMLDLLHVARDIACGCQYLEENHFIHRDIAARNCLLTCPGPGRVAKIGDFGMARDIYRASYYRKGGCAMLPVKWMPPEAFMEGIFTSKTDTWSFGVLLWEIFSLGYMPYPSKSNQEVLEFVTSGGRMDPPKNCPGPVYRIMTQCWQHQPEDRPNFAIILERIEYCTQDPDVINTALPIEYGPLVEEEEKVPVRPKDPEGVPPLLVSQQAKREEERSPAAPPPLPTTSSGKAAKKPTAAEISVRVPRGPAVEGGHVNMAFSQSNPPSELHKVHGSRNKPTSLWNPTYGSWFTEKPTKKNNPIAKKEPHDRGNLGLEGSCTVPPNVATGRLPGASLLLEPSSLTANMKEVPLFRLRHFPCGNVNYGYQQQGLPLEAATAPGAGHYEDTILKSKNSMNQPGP
Assay [3] concerns the target Focal adhesion kinase 1 (Homo sapiens, UniProt Q05397). Type of assay: functional.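 Note: measured as one member of a kinome panel.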
Assay [4] addresses Aurora kinase A (Homo sapiens, UniProt O14965). Type of assay: functional.
Assay [5] has as its target T1, Protein disulfide-isomerase (Homo sapiens, UniProt P07237). The assay is described as follows: PDI inhibitors, insulin turbidity readout, confirmation, biochemical, dry powder samples, set 2 (AID 652146).
Assay [6] in a line: HEK293 cell cytotoxicity, dose response, cytotoxicity control, HEK293T, ATP luminescence, dry powder (AID 652119). Type of assay: functional, cell-based.
The target in assay [7] is T1, Protein disulfide-isomerase. Put plainly: PDI inhibitors, insulin aggregation turbidity, dose response, biochemical, absorbance, cherry-picked samples (AID 602350). Type of assay: functional.
The target in assay [8] is Protein disulfide-isomerase A6 (Homo sapiens, UniProt Q15084). Put plainly: Secondary Assay for Selectivity of PDI Inhibitors (against ERp5) Measured in Biochemical System Using Plate Reader - 2137-04_Inhibitor_Dose_DryPowder_Activity_Set3.
Protein disulfide-isomerase A6, sequence (Q15084 whole entry): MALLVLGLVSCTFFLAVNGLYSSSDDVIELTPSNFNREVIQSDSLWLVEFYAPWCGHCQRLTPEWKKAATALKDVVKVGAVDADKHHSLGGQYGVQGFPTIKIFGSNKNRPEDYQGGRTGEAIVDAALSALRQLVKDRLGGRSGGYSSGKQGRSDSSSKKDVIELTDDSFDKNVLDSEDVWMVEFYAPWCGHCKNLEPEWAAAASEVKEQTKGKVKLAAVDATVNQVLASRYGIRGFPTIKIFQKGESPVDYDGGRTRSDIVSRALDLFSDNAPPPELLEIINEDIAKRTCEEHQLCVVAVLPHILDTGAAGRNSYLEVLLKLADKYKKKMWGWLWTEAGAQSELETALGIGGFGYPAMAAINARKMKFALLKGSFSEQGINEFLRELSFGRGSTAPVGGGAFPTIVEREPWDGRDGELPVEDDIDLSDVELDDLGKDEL
Assay [9] in a line: inhibitors of firefly luciferase expression or activity, dose response, H4 neuroglioma cells, luminescence (AID 1990). Type of assay: functional, cell-based.
The target in assay [10] is T2, Protein RecA (Mycobacterium tuberculosis, UniProt P9WHJ3).
T2 sequence (P9WHJ3 whole entry): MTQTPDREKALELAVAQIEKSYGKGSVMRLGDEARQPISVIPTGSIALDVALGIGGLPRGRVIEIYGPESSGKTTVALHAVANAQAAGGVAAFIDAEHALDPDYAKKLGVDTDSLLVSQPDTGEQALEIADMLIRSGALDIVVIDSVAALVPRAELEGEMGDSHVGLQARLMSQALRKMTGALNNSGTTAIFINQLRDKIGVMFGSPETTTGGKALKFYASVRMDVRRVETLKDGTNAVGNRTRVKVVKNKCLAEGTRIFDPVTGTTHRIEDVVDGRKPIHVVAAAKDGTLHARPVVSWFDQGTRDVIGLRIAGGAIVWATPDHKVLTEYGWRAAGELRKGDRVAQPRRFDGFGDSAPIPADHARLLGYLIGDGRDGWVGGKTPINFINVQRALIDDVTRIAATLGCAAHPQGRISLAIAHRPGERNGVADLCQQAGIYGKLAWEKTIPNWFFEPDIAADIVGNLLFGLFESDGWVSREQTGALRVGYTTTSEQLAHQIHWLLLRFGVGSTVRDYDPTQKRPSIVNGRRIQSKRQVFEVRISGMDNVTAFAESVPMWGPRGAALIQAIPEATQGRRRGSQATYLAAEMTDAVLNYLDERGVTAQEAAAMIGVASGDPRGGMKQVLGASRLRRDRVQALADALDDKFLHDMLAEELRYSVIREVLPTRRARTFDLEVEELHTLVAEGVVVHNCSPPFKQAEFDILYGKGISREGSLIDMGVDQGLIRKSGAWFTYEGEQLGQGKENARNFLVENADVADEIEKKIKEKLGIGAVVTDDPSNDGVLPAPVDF
Put plainly: Fluorescence Cell-Free Homogeneous Dose Retest to Identify Inhibitors of RecA-Intein Splicing Activity. [Related pubchem assays (depositor defined):AID2097, AID2223, AID489010, AID492950]. Type of assay: functional.

The target in assay [11] is T3, Replicative DNA helicase DnaB (Mycobacterium tuberculosis, UniProt P9WMR3).
T3 sequence (P9WMR3 whole entry): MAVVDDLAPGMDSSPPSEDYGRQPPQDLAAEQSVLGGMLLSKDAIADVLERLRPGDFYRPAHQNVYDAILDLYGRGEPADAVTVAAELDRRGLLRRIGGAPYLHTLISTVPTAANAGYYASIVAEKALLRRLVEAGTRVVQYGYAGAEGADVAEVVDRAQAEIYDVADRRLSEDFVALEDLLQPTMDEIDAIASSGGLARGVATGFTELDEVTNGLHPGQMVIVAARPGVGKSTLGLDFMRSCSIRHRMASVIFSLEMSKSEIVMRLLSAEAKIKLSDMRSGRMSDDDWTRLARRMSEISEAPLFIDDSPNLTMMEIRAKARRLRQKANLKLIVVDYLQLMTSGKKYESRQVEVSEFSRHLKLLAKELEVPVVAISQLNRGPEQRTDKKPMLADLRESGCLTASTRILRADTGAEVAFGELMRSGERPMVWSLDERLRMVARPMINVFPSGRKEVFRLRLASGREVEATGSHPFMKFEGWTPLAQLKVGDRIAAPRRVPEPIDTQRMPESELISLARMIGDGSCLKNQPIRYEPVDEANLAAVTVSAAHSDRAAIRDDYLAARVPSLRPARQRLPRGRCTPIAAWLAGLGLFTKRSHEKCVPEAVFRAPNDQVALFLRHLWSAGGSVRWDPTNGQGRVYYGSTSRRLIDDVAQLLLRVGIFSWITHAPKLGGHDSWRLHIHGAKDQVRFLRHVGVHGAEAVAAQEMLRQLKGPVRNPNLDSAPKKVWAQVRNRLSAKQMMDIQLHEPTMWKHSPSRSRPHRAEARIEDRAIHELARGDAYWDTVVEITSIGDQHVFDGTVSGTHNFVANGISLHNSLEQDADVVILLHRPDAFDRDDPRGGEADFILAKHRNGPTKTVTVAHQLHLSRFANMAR
Put plainly: DnaB intein splicing inhibitors, dose response, biochemical, cell-free fluorescence (AID 449749). Type of assay: functional.

Assay [12] in a line: Luminescence Cell-Based Dose Response HTS to Identify Inhibitors of 5'UTR Stem-Loop Driven Prion Protein mRNA Translation in H4 Neuroglioblastoma Cells. [Related pubchem assays: 1827 (Project Summary), 1813 (Primary HTS)]. Type of assay: functional.
Assay [13] in a line: inhibitors of SNCA 5'UTR-driven reporter translation, confirmation, H4 neuroglioma cells, luminescence (AID 1988). Type of assay: functional, cell-based.

T1 sequence (P07237 whole entry): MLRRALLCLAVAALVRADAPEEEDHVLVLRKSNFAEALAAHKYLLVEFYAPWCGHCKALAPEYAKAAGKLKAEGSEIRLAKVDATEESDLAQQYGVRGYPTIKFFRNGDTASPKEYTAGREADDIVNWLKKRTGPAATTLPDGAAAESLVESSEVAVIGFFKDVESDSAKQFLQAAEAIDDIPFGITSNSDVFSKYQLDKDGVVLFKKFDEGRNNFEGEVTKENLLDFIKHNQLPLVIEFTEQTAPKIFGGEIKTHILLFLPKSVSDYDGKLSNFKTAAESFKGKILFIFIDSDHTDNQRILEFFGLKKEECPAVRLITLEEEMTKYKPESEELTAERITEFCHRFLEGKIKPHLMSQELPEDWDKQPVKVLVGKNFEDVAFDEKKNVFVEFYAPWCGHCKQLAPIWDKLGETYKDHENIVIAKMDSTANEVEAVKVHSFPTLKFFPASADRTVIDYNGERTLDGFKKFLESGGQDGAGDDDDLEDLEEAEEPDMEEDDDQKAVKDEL
Aurora kinase A, sequence (O14965 whole entry): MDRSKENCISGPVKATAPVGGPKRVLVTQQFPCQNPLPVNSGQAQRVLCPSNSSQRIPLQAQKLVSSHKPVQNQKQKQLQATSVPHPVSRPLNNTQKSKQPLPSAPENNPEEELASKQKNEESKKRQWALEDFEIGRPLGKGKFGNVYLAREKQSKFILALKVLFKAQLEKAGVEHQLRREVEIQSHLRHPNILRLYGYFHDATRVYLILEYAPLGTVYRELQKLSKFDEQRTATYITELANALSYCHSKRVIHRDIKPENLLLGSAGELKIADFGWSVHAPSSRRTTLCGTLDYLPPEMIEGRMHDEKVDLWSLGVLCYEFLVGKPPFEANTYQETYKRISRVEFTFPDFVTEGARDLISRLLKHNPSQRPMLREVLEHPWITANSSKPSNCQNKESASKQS
Aurora kinase B, sequence (Q96GD4 whole entry): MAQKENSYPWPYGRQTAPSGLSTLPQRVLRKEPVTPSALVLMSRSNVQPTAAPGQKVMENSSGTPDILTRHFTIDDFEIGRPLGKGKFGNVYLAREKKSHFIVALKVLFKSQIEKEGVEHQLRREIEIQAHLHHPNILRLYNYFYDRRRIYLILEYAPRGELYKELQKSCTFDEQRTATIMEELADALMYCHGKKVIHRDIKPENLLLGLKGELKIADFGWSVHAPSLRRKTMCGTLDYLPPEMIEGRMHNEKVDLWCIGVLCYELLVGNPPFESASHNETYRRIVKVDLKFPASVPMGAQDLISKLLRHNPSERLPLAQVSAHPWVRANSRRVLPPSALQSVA
Focal adhesion kinase 1, sequence (Q05397 whole entry): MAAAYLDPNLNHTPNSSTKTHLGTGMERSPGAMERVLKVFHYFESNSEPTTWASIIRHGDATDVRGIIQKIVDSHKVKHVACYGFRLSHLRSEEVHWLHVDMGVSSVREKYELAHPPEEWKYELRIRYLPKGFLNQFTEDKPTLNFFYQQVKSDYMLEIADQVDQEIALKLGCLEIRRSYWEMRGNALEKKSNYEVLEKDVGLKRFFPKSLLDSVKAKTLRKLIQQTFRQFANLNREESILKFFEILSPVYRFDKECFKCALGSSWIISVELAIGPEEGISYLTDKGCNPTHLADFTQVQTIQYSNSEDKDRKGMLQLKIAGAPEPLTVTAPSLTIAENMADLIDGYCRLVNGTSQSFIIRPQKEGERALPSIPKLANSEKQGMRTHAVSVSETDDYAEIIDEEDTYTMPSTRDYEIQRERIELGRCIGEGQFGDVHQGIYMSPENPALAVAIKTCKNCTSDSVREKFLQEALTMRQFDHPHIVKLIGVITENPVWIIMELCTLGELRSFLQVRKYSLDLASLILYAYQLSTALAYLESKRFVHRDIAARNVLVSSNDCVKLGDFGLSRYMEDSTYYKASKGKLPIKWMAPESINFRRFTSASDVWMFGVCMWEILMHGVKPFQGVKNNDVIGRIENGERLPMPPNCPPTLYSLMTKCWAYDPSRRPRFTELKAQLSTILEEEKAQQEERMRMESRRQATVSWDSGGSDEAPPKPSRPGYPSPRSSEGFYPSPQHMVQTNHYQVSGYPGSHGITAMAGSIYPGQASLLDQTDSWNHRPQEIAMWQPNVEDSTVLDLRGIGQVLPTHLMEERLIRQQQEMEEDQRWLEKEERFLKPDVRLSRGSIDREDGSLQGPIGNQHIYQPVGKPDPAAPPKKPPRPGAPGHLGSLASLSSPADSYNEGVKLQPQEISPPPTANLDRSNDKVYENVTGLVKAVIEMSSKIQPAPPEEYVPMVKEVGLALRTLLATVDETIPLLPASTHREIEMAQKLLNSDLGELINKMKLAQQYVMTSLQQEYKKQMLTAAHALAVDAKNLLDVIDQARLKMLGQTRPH

For `Cc1cc(N2CCOCC2)cc2[nH]c(-c3c(NCCc4ccccc4)cc[nH]c3=O)nc12`, the Ki in assay [1] was 0.1 µM (active); in [2] it was 0.126 µM (active); in [3], > 1.58 µM (inactive); in assay [4] it was 0.794 µM (active).

For `CCOC(=O)C1(CCOc2ccccc2)CCN(Cc2ccc(O)c(Cl)c2)CC1`, the AC50 is 2 µM (active) in [5]; > 52 µM (inactive) in assay [6]; 0.599 µM (active) in assay [7]; 30 µM (inactive) in assay [8]; 99.6 µM (active) in assay [11]. The EC50 in [9] was > 120 µM (not active); in assay [10], > 380 µM (inactive); in [12] it was > 120 µM (not active); in assay [13], > 120 µM (not active).

The values are drawn from ChEMBL document CHEMBL1201862, “PubChem BioAssay data set” (2004).
